Data taken from PubChem BioAssay (NCI).
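Each compound was tested at five concentrations against cells in 96-well plates for 48 hours. At the GI50, growth is halved. TGI marks complete inhibition of growth.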

What was measured:
Assay in all cases: growth of human tumour cells (NCI), 48 h
NCI-H460 lung = system: NCI-H460 lung
SN12C renal = system: SN12C renal
CAKI-1 renal = system: CAKI-1 renal
SW-620 colon = system: SW-620 colon
NCI-H23 lung = system: NCI-H23 lung
PC-3 prostate = system: PC-3 prostate
MOLT-4 leukemia = system: MOLT-4 leukemia
MDA-N = system: MDA-N
SR leukemia = system: SR leukemia

Compound | GI50 (NCI-H460 lung) | TGI (NCI-H460 lung) | GI50 (SN12C renal) | TGI (SN12C renal) | GI50 (CAKI-1 renal) | TGI (CAKI-1 renal) | GI50 (SW-620 colon) | TGI (SW-620 colon) | GI50 (NCI-H23 lung) | TGI (NCI-H23 lung) | GI50 (PC-3 prostate) | TGI (PC-3 prostate) | TGI (MOLT-4 leukemia) | TGI (MDA-N) | TGI (SR leukemia)
Cc1ccc2sc3c(NCCCN)nc4ccccc4c3c(=O)c2c1 | 1.84 µM | 3.56 µM | 1.68 µM | 3.13 µM | 1.67 µM | 3.25 µM | 1.79 µM | 3.54 µM | 1.82 µM | 3.37 µM | 1.71 µM | 3.4 µM |  |  | 
CC(C)OC1=C(CC2(C)OCCO2)C(=O)C12OCCO2 |  | > 100 µM |  | > 100 µM |  | > 100 µM |  | > 100 µM |  | > 100 µM |  | > 100 µM | > 100 µM |  | 
Cc1ccc(/C=c2\c(=O)[nH]c3nc4ccccc4c(=O)n23)cc1 |  |  |  | > 100 µM |  | > 100 µM |  | 48.8 µM |  | > 100 µM |  | > 100 µM | > 100 µM | 62.2 µM | 
C1=CC2C(C3CN(c4ccccc4)N=C13)C1C3C4C=CC21C=CC43 (configuration not stated) |  | > 100 µM |  | > 100 µM |  | > 100 µM |  | > 100 µM |  | > 100 µM |  | > 100 µM | > 100 µM |  | 
O=c1oc2ccccc2c(O)c1C(c1ccc(OCc2ccccc2)cc1)c1c(O)c2ccccc2oc1=O |  | > 100 µM |  | > 100 µM |  | 81.2 µM |  | > 100 µM |  | > 100 µM |  | > 100 µM | > 100 µM | 59.4 µM | 
C=C1c2c(n(S(=O)(=O)c3ccccc3)c3ccccc23)[C@@]2(C(=O)OC)CC3C=CC2N1C3 |  | > 100 µM |  | > 100 µM |  | > 100 µM |  | > 100 µM |  | > 100 µM |  | > 100 µM | > 100 µM | > 100 µM | 
COP(=O)(CP(=O)(OC)OCCC(C)CCC=C(C)C)OC (configuration not stated) |  | > 100 µM |  | > 100 µM |  | > 100 µM |  | > 100 µM |  | > 100 µM |  | > 100 µM | > 100 µM | > 100 µM | 
C=CC(=O)N1C/C(=C\c2ccc(OC)cc2)C(=O)/C(=C/c2ccc(OC)cc2)C1 |  | 6.82 µM |  | 6.83 µM |  | 11.7 µM |  | 8.02 µM |  | 4.79 µM |  | 4.19 µM | > 27.8 µM |  | > 100 µM
Cc1ccc(C)n1-c1ccccc1C1C=Cn2c(=O)oc3c(OC(C)C)c(OC(C)C)c(O)c1c32 (configuration not stated) |  | > 100 µM |  | > 100 µM |  | > 100 µM |  | 75.6 µM |  | > 100 µM |  | 93.9 µM | > 100 µM |  | 
O=S(=O)(O)c1ccc(O)c(N=Nc2c(O)ccc3ccccc23)c1 |  |  |  | > 100 µM |  | > 100 µM |  | > 100 µM |  | > 100 µM |  | > 100 µM | > 100 µM | > 100 µM | 
CCn1c(CCCc2nc3c([nH]2)c(=O)n(C)c(=O)n3C)nc2c1c(=O)n(C)c(=O)n2C |  | > 100 µM |  | > 100 µM |  | > 100 µM |  | > 100 µM |  | > 100 µM |  | > 100 µM | > 100 µM | > 100 µM | 
CC(=O)NC1C(OCc2ccccc2)OC(CO)C(O)C1OC(C)C(=O)NC(C(=O)NC(CCC(=O)NCCCNc1ccc([N+](=O)[O-])c2[nH]c3ccccc3c(=O)c12)C(N)=O)C(C)C (configuration not stated) |  | > 100 µM |  | > 100 µM |  | > 100 µM |  | > 100 µM |  | > 100 µM |  | > 100 µM | > 100 µM | > 100 µM | 
OC(CCN1CCN(CCOC(c2ccccc2)c2ccccc2)CC1)c1ccccc1 (configuration not stated) |  | 35.7 µM |  | 82.3 µM |  | > 100 µM |  | > 100 µM |  | 63.1 µM |  | 65.5 µM |  | 36.8 µM | 
CC(=O)C(CN1C(=O)c2ccccc2C1=O)C(C)=O |  | > 100 µM |  | > 100 µM |  | > 100 µM |  | > 100 µM |  | > 100 µM |  | > 100 µM |  | > 100 µM | 
O=C(O)C(Cc1ccccc1)Cc1ccccc1 |  | > 100 µM |  | > 100 µM |  | > 100 µM |  | > 100 µM |  | > 100 µM |  | > 100 µM | > 100 µM | > 100 µM | 
COc1cc2nc(-c3cccs3)nc(Nc3ccccc3C(=O)NN)c2cc1OC |  | > 100 µM |  | > 100 µM |  | > 100 µM |  | > 100 µM |  | > 100 µM |  | > 100 µM | > 100 µM |  | > 100 µM
COc1cc2c3c(n(C)c(=O)c2cc1OC)-c1cc2c(cc1/C3=C\CCCCl)OCO2 |  | > 100 µM | > 100 µM | > 100 µM |  | > 100 µM |  | > 100 µM |  | 40.9 µM |  | > 100 µM | 43.2 µM | > 100 µM | 
CCOC(=O)Cc1[nH]c(C(=O)c2ccccc2)cc1C(=O)c1ccccc1 |  | > 100 µM |  | > 100 µM |  |  |  | > 100 µM |  | 33.4 µM |  | > 10 µM | 85.7 µM |  | > 100 µM
CC(C)(C)OC(=O)N1C(=O)C2CCCC21 (configuration not stated) |  | > 100 µM |  | > 100 µM |  |  |  | > 100 µM |  | > 100 µM |  | > 100 µM | > 100 µM |  | > 100 µM
CSc1nnnc2ccccc12 |  | > 100 µM |  | > 100 µM |  | > 100 µM |  | > 100 µM |  | > 100 µM |  | > 100 µM | > 100 µM | > 100 µM | 
CCOC(=O)c1sc2nc(SC)nc3c2c1NCN3C |  | > 100 µM |  | > 100 µM |  | > 100 µM |  |  |  | 59.1 µM |  | > 100 µM |  | > 100 µM | 
